PubChem BioAssay (NCI)
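Tested at 5 concentrations; 48 h exposure; 96-well plates; endpoints linearly interpolated, else capped at highest concentration. The concentration for full growth arrest is given as TGI.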

Assays:
Assay in all cases: NCI-60 cell line screen, 48 h
[1] = test system: 786-0 renal
[2] = test system: A498 renal
[3] = test system: A549 NSCLC
[4] = test system: ACHN renal
[5] = test system: BT-549 breast
[6] = test system: CAKI-1 renal
[7] = test system: CCRF-CEM leukemia
[8] = test system: COLO 205 colon
[9] = test system: DU-145 prostate
[10] = test system: EKVX NSCLC
[11] = test system: HCC-2998 colon
[12] = test system: HCT-116 colon
[13] = test system: HCT-15 colon
[14] = test system: HL-60(TB) leukemia
[15] = test system: HOP-62 NSCLC
[16] = test system: HOP-92 NSCLC
[17] = test system: HS 578T breast
[18] = test system: HT29 colon
[19] = test system: IGROV1 ovarian
[20] = test system: K-562 leukemia
[21] = test system: KM12 colon
[22] = test system: LOX IMVI melanoma
[23] = test system: M14 melanoma
[24] = test system: MALME-3M melanoma
[25] = test system: MCF7 breast
[26] = test system: MDA-MB-231 breast
[27] = test system: MDA-MB-435
[28] = test system: MDA-N
[29] = test system: MOLT-4 leukemia
[30] = test system: NCI-H226 lung
[31] = test system: NCI-H23 lung
[32] = test system: NCI-H460 lung
[33] = test system: NCI-H522 lung
[34] = test system: NCI/ADR-RES ovarian
[35] = test system: OVCAR-3 ovarian
[36] = test system: OVCAR-4 ovarian
[37] = test system: OVCAR-5 ovarian
[38] = test system: OVCAR-8 ovarian
[39] = test system: PC-3 prostate
[40] = test system: RXF 393 renal
[41] = test system: SF-268 CNS
[42] = test system: SF-295 CNS
[43] = test system: SF-539 CNS
[44] = test system: SK-MEL-2 melanoma
[45] = test system: SK-MEL-28 melanoma
[46] = test system: SK-MEL-5 melanoma
[47] = test system: SK-OV-3 ovarian
[48] = test system: SN12C renal
[49] = test system: SNB-19 CNS
[50] = test system: SNB-75 CNS
[51] = test system: SW-620 colon
[52] = test system: T-47D breast
[53] = test system: TK-10 renal
[54] = test system: U251 CNS
[55] = test system: UACC-257 melanoma
[56] = test system: UACC-62 melanoma
[57] = test system: UO-31 renal
[58] = test system: RPMI-8226 leukemia

COc1ccc(C(NS(=O)(=O)c2ccc(C)cc2)c2c(C(CBr)OC)c3ccccc3n2S(=O)(=O)c2ccccc2)cc1OC (stereo not drawn)
TGI [1]: > 100 µM | TGI [2]: > 100 µM | TGI [3]: > 100 µM | TGI [4]: > 100 µM | TGI [5]: > 100 µM | TGI [6]: > 100 µM | TGI [7]: > 100 µM | TGI [8]: > 100 µM | TGI [9]: > 100 µM | TGI [10]: > 100 µM | TGI [11]: > 100 µM | TGI [12]: > 100 µM | TGI [13]: > 100 µM | TGI [14]: > 100 µM | TGI [15]: > 100 µM | TGI [16]: > 100 µM | TGI [17]: > 100 µM | TGI [18]: > 100 µM | TGI [19]: > 100 µM | TGI [20]: > 100 µM | TGI [21]: > 100 µM | TGI [22]: > 100 µM | TGI [23]: > 100 µM | TGI [24]: > 100 µM | TGI [25]: > 100 µM | TGI [26]: > 100 µM | TGI [27]: > 100 µM | TGI [28]: > 100 µM | TGI [29]: > 100 µM | TGI [30]: > 100 µM | TGI [31]: > 100 µM | TGI [32]: > 100 µM | TGI [33]: > 100 µM | TGI [34]: > 100 µM | TGI [35]: > 100 µM | TGI [36]: > 100 µM | TGI [37]: > 100 µM | TGI [38]: > 100 µM | TGI [39]: > 100 µM | TGI [40]: > 100 µM | TGI [41]: > 100 µM | TGI [42]: > 100 µM | TGI [43]: > 100 µM | TGI [44]: > 100 µM | TGI [45]: > 100 µM | TGI [46]: > 100 µM | TGI [47]: > 100 µM | TGI [48]: > 100 µM | TGI [49]: > 100 µM | TGI [50]: > 100 µM | TGI [51]: > 100 µM | TGI [52]: > 100 µM | TGI [53]: > 100 µM | TGI [54]: > 100 µM | TGI [55]: > 100 µM | TGI [56]: > 100 µM | TGI [57]: > 100 µM

O=C1C(C=NC(=S)c2ccccc2)=C(O)c2ccccc21
TGI [1]: > 66.7 µM | TGI [3]: > 100 µM | TGI [4]: > 100 µM | TGI [5]: > 94 µM | TGI [6]: > 100 µM | TGI [7]: 53.9 µM | TGI [8]: > 100 µM | TGI [9]: > 100 µM | TGI [10]: > 100 µM | TGI [11]: > 100 µM | TGI [12]: > 100 µM | TGI [13]: > 100 µM | TGI [14]: 22 µM | TGI [15]: > 100 µM | TGI [16]: > 84.8 µM | TGI [17]: > 100 µM | TGI [18]: > 100 µM | TGI [19]: > 70.5 µM | TGI [20]: > 100 µM | TGI [21]: > 100 µM | TGI [22]: > 67.9 µM | TGI [23]: > 100 µM | TGI [25]: > 100 µM | TGI [26]: > 100 µM | TGI [27]: > 100 µM | TGI [28]: > 100 µM | TGI [29]: 69.3 µM | TGI [30]: > 100 µM | TGI [31]: > 100 µM | TGI [32]: > 100 µM | TGI [33]: 50.9 µM | TGI [34]: > 100 µM | TGI [35]: > 100 µM | TGI [36]: > 100 µM | TGI [37]: > 100 µM | TGI [38]: > 100 µM | TGI [39]: > 100 µM | TGI [58]: 67.6 µM | TGI [40]: > 100 µM | TGI [41]: > 100 µM | TGI [42]: > 100 µM | TGI [43]: > 100 µM | TGI [44]: > 100 µM | TGI [45]: > 100 µM | TGI [46]: > 100 µM | TGI [47]: 85.6 µM | TGI [48]: > 100 µM | TGI [49]: > 100 µM | TGI [50]: > 100 µM | TGI [51]: > 100 µM | TGI [52]: > 100 µM | TGI [53]: > 100 µM | TGI [54]: > 100 µM | TGI [55]: > 100 µM | TGI [56]: > 100 µM | TGI [57]: > 88.9 µM
